Laboratory results taken from ChEMBL document CHEMBL1201862, “PubChem BioAssay data set” (2004).
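Five concentrations, 48 hours, 96-well plates. Here, GI50 denotes the concentration required for 50% inhibition of growth.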 Calls of active or inactive are those of the source. Rule as the data show it: active = GI50 up to about 1.1 µM and inactive = higher.

Columns and labels:
Test in all cases: growth of human tumour cells (NCI), 48 h
786-0 = system: 786-0
A549 = system: A549
ACHN = system: ACHN
CAKI-1 = system: CAKI-1
CCRF-CEM = system: CCRF-CEM
COLO 205 = system: COLO 205
DLD-1 = system: DLD-1
DMS-114 = system: DMS-114
DMS-273 = system: DMS-273
EKVX = system: EKVX
HCC 2998 = system: HCC 2998
HCT-116 = system: HCT-116
HCT-15 = system: HCT-15
HL-60 = system: HL-60
HOP-18 = system: HOP-18
HOP-62 = system: HOP-62
HT-29 = system: HT-29
IGROV-1 = system: IGROV-1
K562 = system: K562
KM-20L2 = system: KM-20L2
KM12 = system: KM12
LOX IMVI = system: LOX IMVI
LXFL 529 = system: LXFL 529
M14 = system: M14
M19-MEL = system: M19-MEL
MOLT-4 = system: MOLT-4
Malme-3M = system: Malme-3M
NCI-H226 = system: NCI-H226
NCI-H23 = system: NCI-H23
NCI-H460 = system: NCI-H460
NCI-H522 = system: NCI-H522
OVCAR-3 = system: OVCAR-3
OVCAR-4 = system: OVCAR-4
OVCAR-5 = system: OVCAR-5
OVCAR-8 = system: OVCAR-8
RPMI-8226 = system: RPMI-8226
RXF 393 = system: RXF 393
SF-268 = system: SF-268
SF-295 = system: SF-295
SK-MEL-28 = system: SK-MEL-28
SK-MEL-2 = system: SK-MEL-2
SK-MEL-5 = system: SK-MEL-5
SK-OV-3 = system: SK-OV-3
SN12C = system: SN12C
SNB-19 = system: SNB-19
SNB-75 = system: SNB-75
SNB-78 = system: SNB-78
SR = system: SR
SW-620 = system: SW-620
TK-10 = system: TK-10
U-251 = system: U-251
UACC-257 = system: UACC-257
UACC-62 = system: UACC-62
UO-31 = system: UO-31
XF498 = system: XF498
A498 = system: A498
SF-539 = system: SF-539

## COc1cc(C2C(Cl)C(=O)N2NC(=O)Cc2ccccc2)ccc1O (configuration not stated)
786-0
  GI50: 83.2 µM (inactive)
A549
  GI50: > 100 µM (inactive)
ACHN
  GI50: 93.5 µM (inactive)
CAKI-1
  GI50: > 100 µM (inactive)
CCRF-CEM
  GI50: 23.9 µM (inactive)
COLO 205
  GI50: > 100 µM (inactive)
DLD-1
  GI50: > 100 µM (inactive)
DMS-114
  GI50: 50.2 µM (inactive)
DMS-273
  GI50: > 100 µM (inactive)
EKVX
  GI50: > 100 µM (inactive)
HCC 2998
  GI50: 57.5 µM (inactive)
HCT-116
  GI50: 45.6 µM (inactive)
HCT-15
  GI50: > 100 µM
HL-60
  GI50: 28.1 µM (inactive)
HOP-18
  GI50: 40.3 µM (inactive)
HOP-62
  GI50: > 100 µM (inactive)
HT-29
  GI50: 73.3 µM (inactive)
IGROV-1
  GI50: > 100 µM (inactive)
K562
  GI50: 35.2 µM (inactive)
KM-20L2
  GI50: > 100 µM (inactive)
KM12
  GI50: 91 µM (inactive)
LOX IMVI
  GI50: 77.4 µM (inactive)
LXFL 529
  GI50: 70.6 µM (inactive)
M14
  GI50: > 100 µM (inactive)
M19-MEL
  GI50: > 100 µM (inactive)
MOLT-4
  GI50: 24.6 µM (inactive)
Malme-3M
  GI50: > 100 µM (inactive)
NCI-H226
  GI50: 55.6 µM (inactive)
NCI-H23
  GI50: 45.1 µM (inactive)
NCI-H460
  GI50: > 100 µM (inactive)
NCI-H522
  GI50: 21.3 µM (inactive)
OVCAR-3
  GI50: 33.3 µM (inactive)
OVCAR-4
  GI50: > 100 µM (inactive)
OVCAR-5
  GI50: > 100 µM (inactive)
OVCAR-8
  GI50: > 100 µM (inactive)
RPMI-8226
  GI50: 32.6 µM (inactive)
RXF 393
  GI50: 59 µM (inactive)
SF-268
  GI50: > 100 µM (inactive)
SF-295
  GI50: > 100 µM (inactive)
SK-MEL-28
  GI50: > 100 µM (inactive)
SK-MEL-2
  GI50: > 100 µM (inactive)
SK-MEL-5
  GI50: 69.7 µM (inactive)
SK-OV-3
  GI50: > 100 µM (inactive)
SN12C
  GI50: > 100 µM (inactive)
SNB-19
  GI50: 47.3 µM (inactive)
SNB-75
  GI50: 35.8 µM (inactive)
SNB-78
  GI50: > 100 µM (inactive)
SR
  GI50: 18.3 µM (inactive)
SW-620
  GI50: 68.4 µM (inactive)
TK-10
  GI50: > 100 µM (inactive)
U-251
  GI50: 79.3 µM (inactive)
UACC-257
  GI50: > 100 µM (inactive)
UACC-62
  GI50: 73.3 µM (inactive)
UO-31
  GI50: 22.6 µM (inactive)
XF498
  GI50: > 100 µM (inactive)

## COC(=O)C(Cc1nc2ccc(Cl)cc2nc1O)/C(=N/O)C(=O)Nc1cccc(Cl)c1C (configuration not stated)
786-0
  GI50: > 100 µM (inactive)
A498
  GI50: > 100 µM (inactive)
A549
  GI50: > 100 µM (inactive)
ACHN
  GI50: > 100 µM (inactive)
CAKI-1
  GI50: > 100 µM (inactive)
CCRF-CEM
  GI50: > 100 µM (inactive)
COLO 205
  GI50: > 100 µM (inactive)
DLD-1
  GI50: > 100 µM (inactive)
DMS-114
  GI50: > 100 µM (inactive)
DMS-273
  GI50: > 100 µM (inactive)
EKVX
  GI50: 10.1 µM (inactive)
HCC 2998
  GI50: > 100 µM (inactive)
HCT-116
  GI50: > 100 µM (inactive)
HCT-15
  GI50: > 100 µM
HL-60
  GI50: > 100 µM (inactive)
HOP-18
  GI50: > 100 µM (inactive)
HOP-62
  GI50: > 100 µM (inactive)
HT-29
  GI50: > 100 µM (inactive)
IGROV-1
  GI50: > 100 µM (inactive)
K562
  GI50: > 100 µM (inactive)
KM-20L2
  GI50: > 100 µM (inactive)
KM12
  GI50: > 100 µM (inactive)
LOX IMVI
  GI50: > 100 µM (inactive)
LXFL 529
  GI50: > 100 µM (inactive)
M14
  GI50: > 100 µM (inactive)
M19-MEL
  GI50: > 100 µM (inactive)
MOLT-4
  GI50: > 100 µM (inactive)
Malme-3M
  GI50: > 100 µM (inactive)
NCI-H226
  GI50: > 100 µM (inactive)
NCI-H23
  GI50: > 100 µM (inactive)
NCI-H460
  GI50: > 100 µM (inactive)
NCI-H522
  GI50: > 100 µM (inactive)
OVCAR-3
  GI50: > 100 µM (inactive)
OVCAR-4
  GI50: > 100 µM (inactive)
OVCAR-5
  GI50: > 100 µM (inactive)
OVCAR-8
  GI50: > 100 µM (inactive)
RPMI-8226
  GI50: > 100 µM (inactive)
RXF 393
  GI50: 88.1 µM (inactive)
SF-268
  GI50: > 100 µM (inactive)
SF-295
  GI50: > 100 µM (inactive)
SF-539
  GI50: > 100 µM (inactive)
SK-MEL-28
  GI50: > 100 µM (inactive)
SK-MEL-2
  GI50: > 100 µM (inactive)
SK-MEL-5
  GI50: > 100 µM (inactive)
SK-OV-3
  GI50: > 100 µM (inactive)
SN12C
  GI50: > 100 µM (inactive)
SNB-19
  GI50: > 100 µM (inactive)
SNB-75
  GI50: 65.6 µM (inactive)
SNB-78
  GI50: > 100 µM (inactive)
SR
  GI50: > 100 µM (inactive)
SW-620
  GI50: > 100 µM (inactive)
TK-10
  GI50: > 100 µM (inactive)
U-251
  GI50: > 100 µM (inactive)
UACC-257
  GI50: > 100 µM (inactive)
UACC-62
  GI50: > 100 µM (inactive)
UO-31
  GI50: > 100 µM (inactive)
XF498
  GI50: > 100 µM (inactive)
